Results taken from patent US11666658B2, “Rifamycin analogs and antibody-drug conjugates thereof” (Regeneron Pharmaceuticals, Inc., priority 2018, dated 2023).

Key:
[1] = tested on: S. aureus MSRA strain NRS384; test: S. aureus IV disseminated infection mouse model (4 day model, Balb/c mice), kidney burden; assay type: in vivo; details: 4 day infection model, mAb or conjugate 1 mg/kg, with vancomycin treatment, limit of detection 250 cfu
Description: S. aureus MSRA strain NRS384 was grown overnight in Tryptic soy broth (TSB) and sub-cultured to mid-logarithmic phase. Bacteria were then washed twice with PBS and resuspended in PBS at a concentration of 1.5×10^8 cfu/mL. […] Mice were monitored for weight loss and body conditioning score throughout the infection. […] For quantification, the kidneys were homogenized followed by enumeration of colony forming units through serial dilution in PBS and plating onto trypticase soy agar plates.

[2] = tested on: S. aureus MSRA strain NRS384; test: S. aureus IV advanced disseminated infection mouse model (8 day model, Balb/c mice), kidney burden; assay type: in vivo
Description: To test the efficacy of anti-S. aureus Ab-antibiotic ncADCs of the disclosure in combination therapy with standard of care vancomycin in vivo, two different 8 day intravenous disseminated infection models was performed. […] S. aureus MSRA strain NRS384 was grown overnight in Tryptic soy broth (TSB) and sub-cultured to mid-logarithmic phase. Bacteria were then washed twice with PBS and resuspended in PBS at a concentration of 1.5×10^8 cfu/mL. Balb/c mice were then infected intravenously through the tail vein with 100 uL of the bacterial suspension, for a final infectious dose of […]. In the first study, mice were treated either vancomycin alone, an isotype control antibody plus vancomycin, an isotype control Ab-ncADC (Isotype control-36) plus vancomycin, an anti-WTA antibody plus vancomycin, an anti-WTA Ab-Antibiotic ncADC (anti-WTA Ab-Antibiotic ncADC-36), or a different anti-WTA Ab-Antibiotic ncADC (anti-WTA Ab-Antibiotic ncADC-25) plus vancomycin. Mice were also treated either vancomycin alone, an isotype control antibody plus vancomycin, an isotype control Ab-Antibiotic ncADC (Isotype control Ab-Antibiotic ncADC-36) plus vancomycin, an anti-Protein A antibody plus vancomycin, or an anti-Protein A Ab-Antibiotic ncADC (anti-Protein A Ab-Antibiotic ncADC-36).
In the second study, mice were treated either vancomycin alone, an isotype control antibody plus vancomycin, an isotype control Ab-Antibiotic ncADC (Isotype control Ab-Antibiotic ncADC-36) plus vancomycin, a second isotype control Ab-Antibiotic ncADC (Isotype control Ab-Antibiotic ncADC-25) plus vancomycin, a third isotype control Ab-Antibiotic ncADC (Isotype control Ab-Antibiotic ncADC-21) plus vancomycin, an anti-WTA antibody plus vancomycin, an anti-WTA Ab-Antibiotic ncADC (anti-WTA Ab-Antibiotic ncADC-36), a second anti-WTA Ab-Antibiotic ncADC (anti-WTA Ab-Antibiotic ncADC-25) plus vancomycin, or a third anti-WTA Ab-Antibiotic ncADC (anti-WTA Ab-Antibiotic ncADC-21) plus vancomycin. In all studies, for treatment groups that included vancomycin, it was dosed from three to seven days post infection at 110 mg/kg subcutaneously twice daily. For treatment groups that included antibodies and ncADCs, they were administered four days after infection subcutaneously at 2 mg/kg for the first study or 5 mg/kg for the second study. A no treatment infected control and an uninfected control were included in each of the studies. Mice were monitored for weight loss and body conditioning score throughout the infection. At eight days post infection, mice were euthanized, and the S. aureus kidney burden was quantified. For quantification, the kidneys were homogenized followed by enumeration of colony forming units through serial dilution in PBS and plating onto trypticase soy agar plates. Data points represent the kidney burden from individual mice tested.

Question: How did the Median cfu/kidney pair [1] turn out when `CN[C@H](CC(C)C)C(=O)N[C@H]1C(=O)N[C@@H](CC(N)=O)C(=O)N[C@H]2C(=O)N[C@H]3C(=O)N[C@H](C(=O)N[C@H](C(=O)O)c4cc(O)cc(O)c4-c4cc3ccc4O)[C@H](O)c3ccc(c(Cl)c3)Oc3cc2cc(c3O[C@@H]2O[C@H](CO)[C@@H](O)[C@H](O)[C@H]2O[C@H]2C[C@](C)(N)[C@H](O)[C@H](C)O2)Oc2ccc(cc2Cl)[C@H]1O` [vancomycin] was run?
Answer: The Median cfu/kidney pair was 4.38E+05 cfu/kidney pair.

Question: And the Median cfu/kidney pair ([2]; Balb/c mice, 8 day model, first study (Table 37, anti-Protein A), mAb or conjugate 2 mg/kg, with vancomycin treatment)?
Answer: The Median cfu/kidney pair was 7.25E+06 cfu/kidney pair.

Question: What about the Median cfu/kidney pair ([2]; Balb/c mice, 8 day model, second study (Table 38), mAb or conjugate 5 mg/kg, with vancomycin treatment) of the same compound?
Answer: The Median cfu/kidney pair was 1.88E+06 cfu/kidney pair.

Question: What about the “reduction of S. aureus kidney burden” value ([2]; first study, vancomycin alone 110 mg/kg subcutaneously twice daily day 3 to 7, kidneys at day 8) of the same compound?
Answer: Its value is 1-2 logs.

Question: And the Median cfu/kidney pair ([2]; in vivo)?
Answer: Its Median cfu/kidney pair is 7.25E+06 cfu/kidney pair.

Question: And the “reduction of S. aureus kidney bacterial burden” value ([2]; second study, vancomycin alone)?
Answer: Its value is 1-2 logs.
